These are literature values, as cited in patent US20090022789A1 (Supernus Pharmaceuticals, Inc., priority 2007, published 2009).

For the series the following is noted: oral administration, IR form.

As to `Nc1nnc(-c2cccc(Cl)c2Cl)c(N)n1` [lamotrigine, 3,5-diamino-6-(2,3-dichlorophenyl)-as-triazine], the first-pass metabolism result is “negligible”.
